Experimental data: the NIST ThermoML archive (doi:10.1016/j.tca.2012.10.024)
Numbers after ± are expanded uncertainties.

What was measured:
[1] = refractive index (Na D-line) (dimensionless); conditions: 101.33 kPa, Liquid, Standard Abbe refractometry
[2] = 101.33 kPa, Liquid, Pycnometric method
[3] = relative permittivity at zero frequency (dimensionless); conditions: 101.33 kPa, Liquid, Parallel plate capacitor

COCCOCCOCCOCCOC [2,5,8,11,14-pentaoxapentadecane]
refractive index ([1]; 293.15 K): 1.4326 ± 0.0009
refractive index ([1]; 298.15 K): 1.4306 ± 0.0009
refractive index ([1]; 303.15 K): 1.4286 ± 0.0009
mass density ([2]; 293.15 K): 1011.06 ± 1.4 kg/m3
mass density ([2]; 298.15 K): 1007.07 ± 1.4 kg/m3
mass density ([2]; 303.15 K): 1002.49 ± 1.4 kg/m3
relative permittivity at zero frequency ([3]; 293.15 K): 7.939 ± 0.48
relative permittivity at zero frequency ([3]; 298.15 K): 7.816 ± 0.47
relative permittivity at zero frequency ([3]; 303.15 K): 7.692 ± 0.46

CCCCCCCC [octane]
refractive index ([1]; 293.15 K): 1.3976 ± 0.0008
refractive index ([1]; 298.15 K): 1.3952 ± 0.0008
refractive index ([1]; 303.15 K): 1.3929 ± 0.0008
relative permittivity at zero frequency ([3]; 293.15 K): 1.968 ± 0.12
relative permittivity at zero frequency ([3]; 298.15 K): 1.961 ± 0.12
relative permittivity at zero frequency ([3]; 303.15 K): 1.954 ± 0.12

CCCCCO [pentan-1-ol]
refractive index ([1]; 293.15 K): 1.41 ± 0.0008
refractive index ([1]; 298.15 K): 1.4082 ± 0.0008
refractive index ([1]; 303.15 K): 1.4061 ± 0.0008
relative permittivity at zero frequency ([3]; 293.15 K): 15.739 ± 0.94
relative permittivity at zero frequency ([3]; 298.15 K): 15.158 ± 0.91
relative permittivity at zero frequency ([3]; 303.15 K): 14.579 ± 0.88
